Data taken from publication PMC8842277, “Highly Antiproliferative Latonduine and Indolo[2,3-c]quinoline Derivatives: Complex Formation with Copper(II) Markedly Changes the Kinase Inhibitory Profile” (Journal of Medicinal Chemistry, 2022).

Columns and labels:
[1] = tested on: HCT-116 colon carcinoma cells; test: MTT assay, 96 h; format: cell-based, human
Text: The oncosuppressor protein p53 controls the cellular response to DNA strand breaks induced by cytotoxic drugs or by radiation.[58] The p53 protein may enhance cell chemosensitivity by promoting apoptosis via different mechanisms including activation of proapoptotic genes such as bax and repression of antiapoptotic genes such as bcl-2 or in contrast increase chemoresistance by promoting p21-mediated and p21-independent growth arrest and DNA repair and by activation of antiapoptotic genes such as bcl-x. There is strong evidence that the modulation of drug sensitivity by p53 may be both drug- and cell type-specific.[59] […] Accordingly, essential differences in chemosensitivity were observed between cells with wild-type p53 gene and cells with knocked out p53 gene by homologous recombination.[60]
(§1) Human colonic adenocarcinoma cell lines Colo 205 doxorubicin-sensitive (ATCC-CCL-222) and Colo 320/MDR-LRP multidrug resistant over-expressing ABCB1 (MDR1)-LRP (ATCC-CCL-220.1) were purchased from LGC Promochem, Teddington, UK. The cells were cultured in an RPMI 1640 medium supplemented with 10% heat-inactivated fetal bovine serum, 2 mM L-glutamine, 1 mM Na-pyruvate, and 10 mM HEPES. The semi-adherent human colon cancer cells were detached with Trypsin-Versene (EDTA) solution for 5 min at 37 °C. An MRC-5 human embryonal lung fibroblast cell line (ATCC CCL-171) was purchased from LGC Promochem, Teddington, UK. The cells were cultured in Eagle’s minimal essential medium (EMEM, containing 4.5 g L^–1 glucose) supplemented with a non-essential amino acid mixture, a selection of vitamins, and 10% heat-inactivated fetal bovine serum. The HCT-116 colon carcinoma cells and isogenic p53-knock-out subline were a gift of Prof. Bert Vogelstein from The Johns Hopkins Oncology Center. Cells were cultured in McCoy’s 5A medium supplemented with 10% heat-inactivated fetal bovine serum and 4 mM L-glutamine. All cell lines were incubated at 37 °C, in a 5% CO2, 95% air atmosphere.
MRC-5 non-cancerous human embryonic lung fibroblast and human colonic adeno-carcinoma cell lines (doxorubicin-sensitive Colo 205 and multidrug resistant Colo 320 colonic adenocarcinoma cells) were used to determine the effect of compounds on cell growth. The effects of increasing concentrations of compounds on cell growth were tested in 96-well flat-bottomed microtiter plates. The compounds were dissolved in DMSO and stock solutions of 10 mM were prepared. These were further diluted in the appropriate cell culture medium by twofold serial dilution starting from 100 or 10 μM for the compounds. The adherent human embryonal lung fibroblast cells were cultured in 96-well flat-bottomed microtiter plates using EMEM supplemented with 10% heat-inactivated fetal bovine serum. The density of the cells was adjusted to 1 × 10^4 cells in 100 μL per well, the cells were seeded for 24 h at 37 °C, 5% CO2, then the medium was removed from the plates containing the cells, and the dilutions of compounds previously made in a separate plate were added to the cells in 200 μL. In the case of the colonic adenocarcinoma cells, the twofold serial dilutions of compounds were prepared in 100 μL of RPMI 1640, horizontally. The semi-adherent colonic adenocarcinoma cells were treated with Trypsin-Versene (EDTA) solution. They were adjusted to a density of 1 × 10^4 cells in 100 μL of RPMI 1640 medium and were added to each well, with the exception of the medium control wells. […]

[2] = tested on: normal human embryonal lung fibroblast cells (MRC-5); test: MTT antiproliferative assay; format: cell-based; conditions: 72 h, read-out: IC50 MRC-5 benign, mean
Protocol: (§2) The in vitro antiproliferative activity of the compounds was tested in doxorubicin-sensitive Colo205 and multidrug-resistant Colo320 human colon adenocarcinoma cell lines as well as in normal human embryonal lung fibroblast cells (MRC-5) by MTT assay.
as §1
(§3) MRC-5 non-cancerous human embryonic lung fibroblast and human colonic adeno-carcinoma cell lines (doxorubicin-sensitive Colo 205 and multidrug resistant Colo 320 colonic adenocarcinoma cells) were used to determine the effect of compounds on cell growth. The effects of increasing concentrations of compounds on cell growth were tested in 96-well flat-bottomed microtiter plates. The compounds were dissolved in DMSO and stock solutions of 10 mM were prepared. These were further diluted in the appropriate cell culture medium by twofold serial dilution starting from 100 or 10 μM for the compounds. The adherent human embryonal lung fibroblast cells were cultured in 96-well flat-bottomed microtiter plates using EMEM supplemented with 10% heat-inactivated fetal bovine serum. The density of the cells was adjusted to 1 × 10^4 cells in 100 μL per well, the cells were seeded for 24 h at 37 °C, 5% CO2, then the medium was removed from the plates containing the cells, and the dilutions of compounds previously made in a separate plate were added to the cells in 200 μL. In the case of the colonic adenocarcinoma cells, the twofold serial dilutions of compounds were prepared in 100 μL of RPMI 1640, horizontally. The semi-adherent colonic adenocarcinoma cells were treated with Trypsin-Versene (EDTA) solution. They were adjusted to a density of 1 × 10^4 cells in 100 μL of RPMI 1640 medium and were added to each well, with the exception of the medium control wells. The final volume of the wells containing compounds and cells was 200 μL. The culture plates were incubated at 37 °C for 72 h; at the end of the incubation period, 20 μL of MTT (thiazolyl blue tetrazolium bromide, Sigma) solution (from a stock solution of 5 mg mL^–1) was added to each well. After incubation at 37 °C for 4 h, 100 μL of sodium dodecyl sulfate (SDS) (Sigma) solution (10% in 0.01 M HCI) was added to each well and the plates were further incubated at 37 °C overnight. Cell growth was determined by measuring the optical density (OD) at 540/630 nm with a Multiscan EX ELISA reader (Thermo Labsystems, Cheshire, WA, USA). […] Curves were fitted by GraphPad Prism software[57] using the sigmoidal dose–response model (comparing variable and fixed slopes). The IC50 values were obtained from at least three independent experiments. Tests in adherent HCT-116 colon carcinoma cells and an isogenic p53-knock-out subline thereof were performed in a similar manner, with 1.5 × 10^3 cells seeded in 100 μL of McCoy’s 5A medium (Sigma-Aldrich) per well. […]

[3] = tested on: multidrug-resistant Colo320 human colon adenocarcinoma cells; test: MTT antiproliferative assay; format: cell-based; conditions: for selectivity factor (SF) Colo320: IC50 MRC-5/IC50 Colo320; for IC50: MTT, 72 h
Protocol: as §2, §1, §3

[4] = tested on: doxorubicin-sensitive Colo205 human colon adenocarcinoma cells; test: MTT antiproliferative assay; format: cell-based; conditions: for selectivity factor (SF) Colo205: IC50 MRC-5/IC50 Colo205; for IC50: MTT, 72 h
Protocol: as §2, §1, §3

Row | Structure (SMILES) | IC50 [1] | IC50 [2] | selectivity factor (SF) Colo320 [3] | IC50 [3] | selectivity factor (SF) Colo205 [4] | IC50 [4]
1 | CC(=NNc1nc2ccccc2c2c1[nH]c1ccc(Br)cc12)c1ccc(CN2CCOCC2)cn1.[Cl][Cu][Cl] [compound 8, CuCl2(HL^8)·H2O] | 50 nM | 165 nM | 0.30 | 547 nM | 4.38 | 38 nM
2 | CC(=NNC1=NCc2ccccc2-c2c1[nH]c1ccc(Br)cc21)c1ccc(CN2CCOCC2)cn1.[Cl][Cu][Cl] [compound 4, CuCl2(HL^4)·0.5H2O] | 130 nM | 397 nM | 3.64 | 109 nM | 1.80 | 220 nM
